# US11286268B1, “EIF4E-inhibiting compounds and methods” (EFFECTOR THERAPEUTICS, INC., priority 2019, dated 2022)
# Biological target: recombinant eIF4E (Homo sapiens (Human), UniProt P06730)
# Test: Fluorescence polarization competition assay for eIF4E binding potency
# Conditions: inhibition of eIF4E/EDA-m7GDP-ATTO-550 binding; calculated IC50 values, Table 4B; read-out: IC50
# How it was run: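 IC50 values reflect 50% displacement of 20 nM EDA-m7GDP-ATTO-550 from 75 nM eIF4E, measured by fluorescence polarization after 30 min at room temperature. Buffer: 20 mM Tris pH 7.5, 100 mM NaCl, 1 mM DTT, 0.02% Tween-20; 1% DMSO.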
# Sequence of recombinant eIF4E (P06730 whole entry): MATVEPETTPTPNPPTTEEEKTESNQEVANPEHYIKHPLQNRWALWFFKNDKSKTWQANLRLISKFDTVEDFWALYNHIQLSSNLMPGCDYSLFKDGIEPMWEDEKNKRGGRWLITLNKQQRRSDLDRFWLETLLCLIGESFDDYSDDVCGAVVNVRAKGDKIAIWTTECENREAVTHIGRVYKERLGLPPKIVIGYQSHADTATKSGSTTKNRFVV
row,IC50 [nM],Structure (SMILES)
1,15.3,CC(=O)CN1CCC(N(C)c2ncc3nc(C)n(CC#Cc4ccc(Cl)cc4-c4ccnc5c(C(=O)O)csc45)c(=O)c3c2C#N)CC1 [compound 1519]
2,17.9,Cc1nc2cnc(N(C)C3CCN(CCC(F)(F)F)CC3)c(C#N)c2c(=O)n1CC#Cc1ccc(Cl)cc1-c1ccnc2c(C(=O)O)csc12 [compound 1520]
3,17.7,Cc1nc2cnc(N(C)C3CCN(C4(C(F)F)CC4)CC3)c(C#N)c2c(=O)n1CC#Cc1ccc(Cl)cc1-c1ccnc2c(C(=O)O)csc12 [compound 1522]
4,13.1,Cc1nc2cnc(N(C)C3CCN(C4COC4)CC3)c(C#N)c2c(=O)n1CC#Cc1ccc(Cl)cc1-c1ccnc2c(C(=O)O)csc12 [compound 1523]
5,12.5,Cc1nc2cnc(N(C)C3CCN(C4(C)CC4)CC3)c(C#N)c2c(=O)n1CC#Cc1ccc(Cl)cc1-c1ccnc2c(C(=O)O)csc12 [compound 1524]
6,15.1,Cc1nc2cnc(N3CC4(CCN4C4CC4)C3)c(C#N)c2c(=O)n1CC#Cc1ccc(Cl)cc1-c1ccnc2c(C(=O)O)csc12 [compound 1525]
7,15.6,Cc1nc2cnc(N3CCC(N(C)C4CC4)CC3)c(C#N)c2c(=O)n1CC#Cc1ccc(Cl)cc1-c1ccnc2c(C(=O)O)csc12 [compound 1527]
8,6.31,Cc1nc2cnc(N(C)C3CCOCC3)c(C#N)c2c(=O)n1CC#Cc1ccc(Cl)cc1-c1ccnc2c(C(=O)O)csc12 [compound 1528]
9,20.1,Cc1nc2cnc(N(C)C3CCN(C4(CF)CC4)CC3)c(C#N)c2c(=O)n1CC#Cc1ccc(Cl)cc1-c1ccnc2c(C(=O)O)csc12 [compound 1529]
10,33.5,Cc1nc2cnc(N(C)C3CCN(C4(C(F)(F)F)CC4)CC3)c(C#N)c2c(=O)n1CC#Cc1ccc(Cl)cc1-c1ccnc2c(C(=O)O)csc12 [compound 1530]
11,13.4,Cc1nc2cnc(N(C)[C@@H]3C[C@@H]4CN(CC(F)F)C[C@@H]4C3)c(C#N)c2c(=O)n1CC#Cc1ccc(Cl)cc1-c1ccnc2c(C(=O)O)csc12 [compound 1531]
12,11.2,Cc1nc2cnc(N(C)[C@H]3C[C@H](N(C)CCF)C3)c(C#N)c2c(=O)n1CC#Cc1ccc(Cl)cc1-c1ccnc2c(C(=O)O)csc12 [compound 1532]
13,21.7,Cc1nc2cnc(N(C)[C@H]3CC[C@@H](N(C)CCF)CC3)c(C#N)c2c(=O)n1CC#Cc1ccc(Cl)cc1-c1ccnc2c(C(=O)O)csc12 [compound 1533]
14,15.8,Cc1nc2cnc(N(C)C3COC3)c(C#N)c2c(=O)n1CC#Cc1ccc(Cl)cc1-c1ccnc2c(C(=O)O)csc12 [compound 1534]
15,17.4,CCN(c1ncc2nc(C)n(CC#Cc3ccc(Cl)cc3-c3ccnc4c(C(=O)O)csc34)c(=O)c2c1C#N)C1CCN(CC(F)F)CC1 [compound 1535]
16,18.3,Cc1nc2cnc(N(C)C3CCN(CC(F)(F)c4ccn(C)n4)CC3)c(C#N)c2c(=O)n1CC#Cc1ccc(Cl)cc1-c1ccnc2c(C(=O)O)csc12 [compound 1536]
17,18.9,Cc1nc2cnc(N(C)C3CCN(C(c4ccn(C)n4)C(F)F)CC3)c(C#N)c2c(=O)n1CC#Cc1ccc(Cl)cc1-c1ccnc2c(C(=O)O)csc12 (centres unmarked) [compound 1537]
18,14.5,Cc1nc2cnc(N(C)C3CCN(CC(F)(F)F)CC3)c(C#N)c2c(=O)n1CC#Cc1ccc(Cl)cc1-c1ccnc2c(C(=O)NS(=O)(=O)C(C)C)csc12 [compound 1538]
19,12.5,Cc1nc2cnc(N(C)C3CCN(CC(F)(F)F)CC3)c(C#N)c2c(=O)n1CC#Cc1ccc(Cl)cc1-c1ccnc2c(C(=O)NS(=O)(=O)CC(F)F)csc12 [compound 1539]
20,19.5,Cc1nc2cnc(N(C)C3CCCN(CC(F)F)C3)c(C#N)c2c(=O)n1CC#Cc1ccc(Cl)cc1-c1ccnc2c(C(=O)O)csc12 (centres unmarked) [compound 1540]
21,18.6,Cc1nc2cnc(N(C)CC3CN(CC(F)F)C3)c(C#N)c2c(=O)n1CC#Cc1ccc(Cl)cc1-c1ccnc2c(C(=O)O)csc12 [compound 1542]
22,20.5,Cc1nc2cnc(OC3CCN(C4CC(F)(F)C4)CC3)c(C#N)c2c(=O)n1CCOc1ccc(Cl)cc1-c1ccnc2c(C(=O)O)csc12 [compound 1543]
23,13.1,Cc1nc2cnc(N3CCC[C@@H]4CN(CC(F)F)CC[C@@H]43)c(C#N)c2c(=O)n1CC#Cc1ccc(Cl)cc1-c1ccnc2c(C(=O)O)csc12 [compound 1544]
24,27.5,Cc1nc2cnc(N(C)C3C[C@@H]4C[C@H]3CN4CC(C)(F)F)c(C#N)c2c(=O)n1CC#Cc1ccc(Cl)cc1-c1ccnc2c(C(=O)O)csc12 (some centres unmarked) [compound 1545]
25,15.2,Cc1nc2cnc(N(C)C3CCN(CC(F)(F)F)CC3)c(C#N)c2c(=O)n1CC#Cc1ccc(Cl)cc1-c1ccnc2c(C(=O)NS(=O)(=O)C3CC3)csc12 [compound 1547]
26,36.2,Cc1nc2cnc(N(C)C3CCN(CC(F)(F)F)CC3)c(C#N)c2c(=O)n1CC#Cc1ccc(Cl)cc1-c1ccnc2c(C(=O)NS(=O)(=O)c3ccccc3)csc12 [compound 1548]
27,26.2,Cc1ccccc1S(=O)(=O)NC(=O)c1csc2c(-c3cc(Cl)ccc3C#CCn3c(C)nc4cnc(N(C)C5CCN(CC(F)(F)F)CC5)c(C#N)c4c3=O)ccnc12 [compound 1549]

row,IC50 [nM],Structure (SMILES)
1,22.9,Cc1nc2cnc(N(C)C3CCN(CC(F)(F)F)CC3)c(C#N)c2c(=O)n1CC#Cc1ccc(Cl)cc1-c1ccnc2c(C(=O)NS(=O)(=O)c3ccc(F)cc3F)csc12 [compound 1550]
2,12.9,Cc1nc2cnc(N3CCC(N(CC(F)F)C4COC4)CC3)c(C#N)c2c(=O)n1CC#Cc1ccc(Cl)cc1-c1ccnc2c(C(=O)O)csc12 [compound 1553]
3,23.9,Cc1nc2cnc(N(C)C3CCN(CC(F)(F)c4ccccc4)CC3)c(C#N)c2c(=O)n1CC#Cc1ccc(Cl)cc1-c1ccnc2c(C(=O)O)csc12 [compound 1555]
4,49.9,Cc1nc2cnc(N3CC[C@H]4CN(CC(F)F)CC[C@H]43)c(C#N)c2c(=O)n1CC#Cc1ccc(Cl)cc1-c1ccnc2c(C(=O)O)csc12 [compound 1556]
5,6.77,Cc1nc2cnc(N(C)C3CCN(CC(F)F)CC3)c(C#N)c2c(=O)n1C(C)C#Cc1ccc(Cl)cc1-c1ccnc2c(C(=O)O)csc12 (centres unmarked) [compound 1557]
6,69,Cc1nc2cnc(-c3cccc4c3CCN(CC(F)F)C4)c(C#N)c2c(=O)n1CC#Cc1ccc(Cl)cc1-c1ccnc2c(C(=O)O)csc12 [compound 1558]
7,13.4,Cc1nc2cnc(-c3cccc(CN(C)CC(F)F)c3)c(C#N)c2c(=O)n1CC#Cc1ccc(Cl)cc1-c1ccnc2c(C(=O)O)csc12 [compound 1559]
8,6.31,Cc1nc2cnc(N(C)C3CCN(CC(F)F)CC3)c(C#N)c2c(=O)n1CC#Cc1ccc(Cl)cc1-c1ccnc2c(C(=O)NO)csc12 [compound 1560]
9,13,Cc1nc2cnc(N(C)C3CCN(C4COC4)CC3)c(C#N)c2c(=O)n1CC#Cc1ccc(Cl)cc1-c1ccnc2c(C(=O)NS(C)(=O)=O)csc12 [compound 1561]
10,16.8,Cc1nc(N(C)C2CCN(CC(C)(F)F)CC2)c(C#N)c2c(=O)n(CCOc3ccc(Cl)cc3-c3ccnc4c(C(=O)O)csc34)c(C)nc12 [compound 1562]
11,13,Cc1cc(-c2cc(Cl)ccc2OCCn2c(C)nc3cnc(N(C)C4CCN(CC(C)(F)F)CC4)c(C#N)c3c2=O)c2scc(C(=O)O)c2n1 [compound 1563]
12,10.6,Cc1nc2cnc(N3CCC(N4CC(F)C4)CC3)c(C#N)c2c(=O)n1CC#Cc1ccc(Cl)cc1-c1ccnc2c(C(=O)O)csc12 [compound 1564]
13,4.39,Cc1nc2cnc(N(C)C3CCN(CC(F)F)CC3)c(C#N)c2c(=O)n1CC#Cc1ccc(Cl)cc1-c1ccnc2c(C(=O)NS(=O)(=O)c3ccccn3)csc12 [compound 1566]
14,19.5,Cc1nc2cnc(N(C)c3ccncc3)c(C#N)c2c(=O)n1CC#Cc1ccc(Cl)cc1-c1ccnc2c(C(=O)O)csc12 [compound 1569]
15,22.9,Cc1nc2cc(C(F)(F)F)c(N3CC4(C3)CN(C3CC3)C4)c(C#N)c2c(=O)n1CC#Cc1ccc(Cl)cc1-c1ccnc2c(C(=O)O)csc12 [compound 1570]
16,20.5,Cc1nc2cnc(C3CCCN(CC(F)F)C3)c(C#N)c2c(=O)n1CCCc1ccc(Cl)cc1-c1ccnc2c(C(=O)O)csc12 (centres unmarked) [compound 1571]
17,20,Cc1nc2cnc(C(F)(F)C3CCN(CC(F)F)CC3)c(C#N)c2c(=O)n1CC#Cc1ccc(Cl)cc1-c1ccnc2c(C(=O)O)csc12 [compound 1572]
18,22.2,Cc1nc2cnc(C3=CCC(N(C)CC(F)F)CC3)c(C#N)c2c(=O)n1CC#Cc1ccc(Cl)cc1-c1ccnc2c(C(=O)O)csc12 (centres unmarked) [compound 1573]
19,13.4,Cc1nc2cnc(C3CCCN(CC(F)F)C3)c(C#N)c2c(=O)n1CC#Cc1ccc(Cl)cc1-c1ccnc2c(C(=O)O)csc12 (centres unmarked) [compound 1574]
20,14.7,Cc1nc2cnc(N(C)C3[C@@H]4CC[C@H]3CN(CC(C)(F)F)C4)c(C#N)c2c(=O)n1CC#Cc1ccc(Cl)cc1-c1ccnc2c(C(=O)O)csc12 (some centres unmarked) [compound 1575]
21,17.9,Cc1nc2cnc(N(C)[C@@H]3[C@@H]4C[C@H]3CN(CC(C)(F)F)C4)c(C#N)c2c(=O)n1CC#Cc1ccc(Cl)cc1-c1ccnc2c(C(=O)O)csc12 [compound 1576]
22,13.3,Cc1nc2cnc(N(C)[C@H]3[C@@H]4C[C@H]3CN(CC(C)(F)F)C4)c(C#N)c2c(=O)n1CC#Cc1ccc(Cl)cc1-c1ccnc2c(C(=O)O)csc12 [compound 1577]
23,20.3,CCN(c1ncc2nc(C)n(CC#Cc3ccc(Cl)cc3-c3ccnc4c(C(=O)NS(C)(=O)=O)csc34)c(=O)c2c1C#N)C1CCN(C2COC2)CC1 [compound 1578]
24,30.3,Cc1nc2cnc(N(C)[C@H]3CC[C@H](N(CC(F)F)C(C)CO)CC3)c(C#N)c2c(=O)n1CC#Cc1ccc(Cl)cc1-c1ccnc2c(C(=O)O)csc12 (some centres unmarked) [compound 1579]
25,14.3,Cc1nc2cnc(N(C)[C@@H]3CC[C@@H](N(C)CC(F)F)C3)c(C#N)c2c(=O)n1CC#Cc1ccc(Cl)cc1-c1ccnc2c(C(=O)O)csc12 [compound 1581]
26,19.2,Cc1nc2cnc(N(C)C3CCN(CC(F)(F)C4CC(F)(F)C4)CC3)c(C#N)c2c(=O)n1CC#Cc1ccc(Cl)cc1-c1ccnc2c(C(=O)O)csc12 [compound 1582]
